Measured values reported in ChEMBL document CHEMBL1201862, “PubChem BioAssay data set” (2004).
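A five-concentration, 48-hour dose response in 96-well plates underlies each endpoint, interpolated linearly between surrounding concentrations. Here, GI50 denotes the concentration required for 50% inhibition of growth.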 Activity calls are given as the source filed them. Rule as the data show it: active = GI50 up to about 1.1 µM and inactive = higher.

Columns and labels:
Test in all cases: NCI anticancer screen, dose series, 48 h
OVCAR-5 = tested on: OVCAR-5
IGROV-1 = tested on: IGROV-1
M14 = tested on: M14
PC-3 = tested on: PC-3
SK-MEL-5 = tested on: SK-MEL-5
CCRF-CEM = tested on: CCRF-CEM
BT-549 = tested on: BT-549
OVCAR-8 = tested on: OVCAR-8
ACHN = tested on: ACHN
Hs-578T = tested on: Hs-578T
NCI-H522 = tested on: NCI-H522
SK-MEL-2 = tested on: SK-MEL-2
SR = tested on: SR
NCI-H226 = tested on: NCI-H226
KM12 = tested on: KM12
NCI-H23 = tested on: NCI-H23
UACC-257 = tested on: UACC-257
A498 = tested on: A498
A549 = tested on: A549

Measured: GI50

O=C(O)CCN(CCC(=O)O)c1ccc(/C=C2\SC(=S)NC2=O)cc1
inactive: OVCAR-5 > 100 µM | IGROV-1 > 100 µM | M14 > 100 µM | PC-3 > 100 µM | SK-MEL-5 > 100 µM | CCRF-CEM > 100 µM | BT-549 > 100 µM | OVCAR-8 > 100 µM | ACHN > 100 µM | Hs-578T > 100 µM | NCI-H522 91.6 µM | SK-MEL-2 > 100 µM | SR > 100 µM | NCI-H226 > 100 µM | KM12 > 100 µM | NCI-H23 > 100 µM | UACC-257 > 100 µM | A498 > 100 µM | A549 > 100 µM

O=C1CCCCC(=O)Nc2ccccc2N1
inactive: OVCAR-5 > 100 µM | IGROV-1 > 100 µM | M14 > 100 µM | PC-3 > 100 µM | SK-MEL-5 > 100 µM | CCRF-CEM > 100 µM | BT-549 > 100 µM | OVCAR-8 > 100 µM | ACHN > 100 µM | Hs-578T > 100 µM | NCI-H522 > 100 µM | SK-MEL-2 > 100 µM | SR 39.4 µM | NCI-H226 > 100 µM | KM12 > 100 µM | NCI-H23 > 100 µM | UACC-257 > 100 µM | A498 > 100 µM | A549 > 100 µM

O=C(O)CO[C@@]12C#C/C=C\C#C[C@@H]3N(C(=O)Oc4ccccc4)c4ccccc4[C@]14O[C@@]34CCC2
inactive: IGROV-1 27.2 µM | M14 41.1 µM | PC-3 26.2 µM | SK-MEL-5 28 µM | CCRF-CEM 29.7 µM | BT-549 30.1 µM | OVCAR-8 44.6 µM | ACHN 85.9 µM | Hs-578T 19.4 µM | NCI-H522 33.5 µM | SK-MEL-2 16.2 µM | SR 55.2 µM | NCI-H226 71.9 µM | KM12 17.6 µM | NCI-H23 53.5 µM | UACC-257 55.7 µM | A498 59.3 µM | A549 > 100 µM

COc1ccc(/C=C(\C#N)c2nc(N)nc(N3N=C(C)CC3(C)C)n2)c(O)c1
inactive: OVCAR-5 15.3 µM | IGROV-1 24 µM | M14 20.3 µM | PC-3 37.9 µM | SK-MEL-5 15.2 µM | CCRF-CEM 40.2 µM | BT-549 34 µM | OVCAR-8 32.7 µM | ACHN 17.1 µM | Hs-578T 18.3 µM | NCI-H522 21.7 µM | SK-MEL-2 20.7 µM | SR 16.9 µM | NCI-H226 16.7 µM | KM12 15.6 µM | NCI-H23 18.8 µM | UACC-257 24 µM | A498 28.4 µM | A549 18.8 µM

COc1ccc(O)c(/C=N/CCC/N=C/c2cc(OC)ccc2O)c1
inactive: OVCAR-5 38.3 µM | IGROV-1 34.4 µM | M14 37.2 µM | PC-3 24.5 µM | CCRF-CEM 3.8 µM | BT-549 23.1 µM | OVCAR-8 15.7 µM | ACHN 24.7 µM | Hs-578T 24.5 µM | NCI-H522 46 µM | SK-MEL-2 31.6 µM | SR 14 µM | NCI-H226 27.4 µM | KM12 13.8 µM | NCI-H23 43.5 µM | UACC-257 23.7 µM | A498 8.91 µM | A549 70.8 µM

O=P(O)(O)CN1CCNCCN(CP(=O)(O)O)CCN(CP(=O)(O)O)CCNCC1
inactive: OVCAR-5 > 100 µM | IGROV-1 65900 µM | M14 > 100 µM | PC-3 > 100 µM | SK-MEL-5 77300 µM | CCRF-CEM > 100 µM | BT-549 > 100 µM | OVCAR-8 83400 µM | ACHN > 100 µM | Hs-578T > 100 µM | NCI-H522 > 100 µM | SK-MEL-2 99300 µM | SR > 100 µM | NCI-H226 9.48 µM | KM12 55200 µM | NCI-H23 > 100000 µM | UACC-257 > 100 µM | A498 93.5 µM | A549 42600 µM

COc1ccc(C2N(c3ccc(F)cc3)C(=O)N3C(c4ccc(OC)cc4)N(c4ccc(F)cc4)C(=O)N23)cc1 (centres undefined)
inactive: OVCAR-5 > 100 µM | IGROV-1 > 100 µM | M14 > 100 µM | PC-3 > 100 µM | SK-MEL-5 > 100 µM | CCRF-CEM > 100 µM | BT-549 > 100 µM | OVCAR-8 > 100 µM | ACHN > 100 µM | Hs-578T > 100 µM | NCI-H522 > 100 µM | SK-MEL-2 > 100 µM | SR 34 µM | KM12 > 100 µM | NCI-H23 > 100 µM | UACC-257 > 100 µM | A498 > 100 µM | A549 > 100 µM

O=c1cc(CNC2CCCC2)[nH]c(=O)[nH]1
inactive: OVCAR-5 > 100 µM | IGROV-1 > 100 µM | M14 > 100 µM | PC-3 > 100 µM | SK-MEL-5 > 100 µM | CCRF-CEM > 100 µM | BT-549 > 100 µM | OVCAR-8 > 100 µM | ACHN > 100 µM | Hs-578T > 100 µM | NCI-H522 > 100 µM | SK-MEL-2 > 100 µM | SR > 100 µM | KM12 > 100 µM | NCI-H23 > 100 µM | UACC-257 > 100 µM | A498 > 100 µM | A549 > 100 µM

O=c1n(CCCN2CCN(c3cccc(Cl)c3)CC2)nc2n1-c1ccc3ccccc3c1SC2
inactive: OVCAR-5 > 100 µM | IGROV-1 > 100 µM | PC-3 > 100 µM | SK-MEL-5 6.01 µM | CCRF-CEM > 100 µM | BT-549 > 100 µM | OVCAR-8 > 100 µM | Hs-578T > 100 µM | NCI-H522 > 100 µM | SK-MEL-2 > 100 µM | SR > 100 µM | NCI-H226 > 100 µM | KM12 > 100 µM | UACC-257 > 100 µM | A498 > 100 µM | A549 > 100 µM

CSc1nc(SC)c2c(C)cn(COCCOC(=O)c3ccccc3)c2n1
inactive: OVCAR-5 > 100 µM | IGROV-1 > 100 µM | M14 > 100 µM | PC-3 74.5 µM | SK-MEL-5 > 100 µM | CCRF-CEM 64.1 µM | BT-549 > 100 µM | OVCAR-8 > 100 µM | ACHN > 100 µM | Hs-578T 54.1 µM | NCI-H522 > 100 µM | SK-MEL-2 > 100 µM | SR > 100 µM | NCI-H226 > 100 µM | KM12 > 100 µM | NCI-H23 > 100 µM | A498 42.6 µM | A549 > 100 µM

Cc1cc(S(=O)(=O)Nc2nc(-c3ccccn3)n[nH]2)c(S)cc1Cl
inactive: OVCAR-5 15.5 µM | IGROV-1 25.3 µM | M14 15.2 µM | PC-3 31.1 µM | SK-MEL-5 8.55 µM | BT-549 17.9 µM | OVCAR-8 11 µM | ACHN 15.8 µM | Hs-578T 28.8 µM | NCI-H522 27.4 µM | SK-MEL-2 10.3 µM | SR 24.3 µM | NCI-H226 12.3 µM | KM12 20.4 µM | UACC-257 30.9 µM | A498 16.9 µM | A549 12.9 µM
